This is an account of results in BindingDB's records for doi:10.7270/Q2QF8R8B (Pcmd, 2008).

The experiment concerns the target T1, Cathepsin G (Homo sapiens, UniProt P08311).
T1 sequence (P08311 whole entry): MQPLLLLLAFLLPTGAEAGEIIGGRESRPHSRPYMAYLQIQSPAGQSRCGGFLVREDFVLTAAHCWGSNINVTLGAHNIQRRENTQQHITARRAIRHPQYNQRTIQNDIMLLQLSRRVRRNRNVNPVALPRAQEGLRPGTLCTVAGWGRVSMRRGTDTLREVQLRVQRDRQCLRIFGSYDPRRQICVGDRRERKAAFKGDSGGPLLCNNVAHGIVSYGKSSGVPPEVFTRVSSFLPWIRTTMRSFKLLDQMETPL
The experiment in a line: IC50 of CTSG protease blockers – biochemical, confirmation, dose response (AID 832).

As usually defined, the IC50 is the point on the concentration scale where inhibition reaches its midpoint. Compound `Nc1nc(C(=O)N2CCOCC2)nn1C(=O)c1ccc(Cl)cc1` [(5-azanyl-3-morpholin-4-ylcarbonyl-1,2,4-triazol-1-yl)-(4-chlorophenyl)methanone] came in with an IC50 of 4.51 µM. `CSc1nc(-c2ccco2)nn1C(=O)c1cccs1` [[3-(furan-2-yl)-5-methylsulfanyl-1,2,4-triazol-1-yl]-thiophen-2-ylmethanone]: the IC50 is 1.78 µM. The compound `Cc1nn(Cc2ccc(Cl)c(Cl)c2)c(C)c1NC(=O)c1cc(-c2ccc3c(c2)OCO3)on1` [5-(1,3-benzodioxol-5-yl)-N-[1-(3,4-dichlorobenzyl)-3,5-dimethyl-1H-pyrazol-4-yl]isoxazole-3-carboxamide] returned an IC50 of 18.6 µM.

In turn, `CCOC(=O)c1ccc(NC(=O)CS(=O)(=O)c2cn(CC)c3ccccc23)cc1` [4-[[2-(1-ethylindol-3-yl)sulfonylacetyl]amino]benzoic acid ethyl ester] came in with an IC50 above 50 µM. For the compound `COc1ccc(S(=O)(=O)n2nc(OC(=O)c3ccc(C)cc3)cc2N)cc1` [4-Methyl-benzoic acid 5-amino-1-(4-methoxy-benzenesulfonyl)-1H-pyrazol-3-yl ester], the IC50 is 18.3 µM. Regarding `COc1ccc(C(=O)n2nc(-c3ccc(Cl)cc3)nc2N)cc1OC` [SMR000074176], the IC50 was 32.2 µM. Compound `COC(=O)c1sc(N2C(=O)C(=O)C(C(=O)c3ccc(C)o3)C2c2ccc(F)cc2)nc1C` (stereo not drawn) [2-[2-(4-fluorophenyl)-4-hydroxy-3-[(5-methyl-2-furanyl)-oxomethyl]-5-oxo-2H-pyrrol-1-yl]-4-methyl-5-thiazolecarboxylic acid methyl ester] displayed an IC50 above 50 µM.

The compound `O=C1CS/C(=N\c2ccc(O)cc2)N1c1ccc(O)cc1` [MLS000027731] had a 50% inhibitory concentration (IC50) above 50 µM. `COc1ccc2c(c1)CCc1c(C(=O)NCc3ccc(F)cc3)noc1-2` [MLS000116425] displayed an IC50 of 2.52 µM. In the case of `COc1ccccc1-c1cc(C(=O)NC(C)c2ccccc2)no1` (stereo not drawn) [5-(2-methoxyphenyl)-N-(1-phenylethyl)-1,2-oxazole-3-carboxamide], the IC50 is 21.8 µM. `COc1ccc(-c2cc(C(=O)Nc3c(C)nn(Cc4ccccc4Cl)c3C)no2)cc1` [MLS000087058]: the IC50 was determined as 44.4 µM. Compound `O=c1oc(-c2cccnc2)nc2ccccc12` [2-(3-pyridinyl)-3,1-benzoxazin-4-one] registered an IC50 of 2.77 µM.

`COc1ccccc1-c1cc(C(=O)NCc2ccccc2)no1` [5-(2-methoxyphenyl)-N-(phenylmethyl)-1,2-oxazole-3-carboxamide] had an IC50 of 13.3 µM. To `O=C(NCCCn1ccnc1)c1noc2c1CCc1ccccc1-2` [N-[3-(1-imidazolyl)propyl]-4,5-dihydrobenzo[g][1,2]benzoxazole-3-carboxamide] belongs 3.73 µM. `COc1ccc(C(=O)n2ccc(C)n2)cc1Br` [(3-bromanyl-4-methoxy-phenyl)-(3-methylpyrazol-1-yl)methanone]: the IC50 was found to be 41.5 µM. In turn, `O=c1oc(-c2cccc(S(=O)(=O)N3CCOCC3)c2)nc2ccccc12` [2-(3-morpholin-4-ylsulfonylphenyl)-3,1-benzoxazin-4-one] gave an IC50 of 4.05 µM. In the case of `COc1ccccc1-c1c(C#N)c(SCC(=O)N2CCCC2)nc(C)c1C(N)=O` [SMR000061200], the IC50 is above 50 µM.

Compound `COc1cc(NC(=O)c2csc3c2CCCC3)ncn1` [MLS000093387] showed an IC50 above 50 µM.

`CC(C)(C)OC(=O)N[C@@H](Cc1ccccc1)c1nnc(S(=O)(=O)Cc2ccccc2)o1` [SMR000047857] registered an IC50 of 1.95 µM.

Regarding `C#CCOC(=O)c1ccccc1C(=O)n1nnc2ccccc21`, the IC50 is 3.97 µM. The compound `O=c1[nH]c(CN2CCc3ccccc3C2)nc2ccccc12` [MLS000088906] registered an IC50 above 50 µM. `CCOC(=O)c1ccc(/N=C/c2nc(-c3ccccc3)oc2OC(C)=O)cc1` [MLS000027596] yielded an IC50 of 21.6 µM.

`COCC(C)NC(=O)c1noc2c1CCc1cc(OC)ccc1-2` (stereo not drawn) [7-methoxy-N-(1-methoxypropan-2-yl)-4,5-dihydrobenzo[g][1,2]benzoxazole-3-carboxamide] returned an IC50 of 6.4 µM.
